{
  "source": "paper PMC6357004",
  "about": "(Viruses, 2018)",
  "key": {"[1]": {"molecular_target": "neuraminidase (NA) of recombinant influenza B/Phuket/3073/2013 R152K virus (Influenza B virus, UniProt A0A1S5RAG6, R150K)", "format": "biochemical, influenza B/Phuket/3073/2013 virus"}, "[2]": {"molecular_target": "neuraminidase (NA) of recombinant influenza B/Phuket/3073/2013 N294S virus (Influenza B virus, UniProt A0A1S5RAG6, N294S)", "format": "biochemical, influenza B/Phuket/3073/2013 virus"}, "[3]": {"molecular_target": "neuraminidase (NA) of recombinant influenza B/Phuket/3073/2013 D198N virus (Influenza B virus, UniProt A0A1S5RAG6, D197N)", "format": "biochemical, influenza B/Phuket/3073/2013 virus"}, "[4]": {"molecular_target": "neuraminidase (NA) of recombinant influenza B/Phuket/3073/2013 D198E virus (Influenza B virus, UniProt A0A1S5RAG6, D197E)", "format": "biochemical, influenza B/Phuket/3073/2013 virus"}, "[5]": {"molecular_target": "neuraminidase (NA) of recombinant influenza B/Phuket/3073/2013 I222T virus (Influenza B virus, UniProt A0A1S5RAG6, I221T)", "format": "biochemical, influenza B/Phuket/3073/2013 virus"}, "[6]": {"molecular_target": "neuraminidase (NA) of recombinant influenza B/Phuket/3073/2013 H136N virus (Influenza B virus, UniProt A0A1S5RAG6, H134N)", "format": "biochemical, influenza B/Phuket/3073/2013 virus"}, "[7]": {"test_system": "B/Wyoming/07/2017 (B/Yamagata lineage) D198N variant", "conditions": "cited from earlier work"}, "[8]": {"conditions": "read-out: Neuraminidase Inhibitors IC50 values"}},
  "data": [
    {"smiles": "CCC(CC)[C@H](NC(C)=O)[C@@H]1[C@H](O)[C@@H](C(=O)O)C[C@H]1N=C(N)N", "note": "[Peramivir, peramivir]", "values": [
      {"measurement": "Folds (fold changes according to WT virus)", "setting": "[1]", "value": 572, "unit": "fold"},
      {"measurement": "IC50", "setting": "[1]; [8]", "value": 423, "unit": "nM"},
      {"measurement": "Folds (fold changes according to WT virus)", "setting": "[2]", "value": 46, "unit": "fold"},
      {"measurement": "IC50", "setting": "[2]; [8]", "value": 33.7, "unit": "nM"},
      {"measurement": "Folds (fold changes according to WT virus)", "setting": "[3]", "value": 9, "unit": "fold"},
      {"measurement": "IC50", "setting": "[3]; [8]", "value": 6.92, "unit": "nM"},
      {"measurement": "Folds (fold changes according to WT virus)", "setting": "[4]", "value": 21, "unit": "fold"},
      {"measurement": "IC50", "setting": "[4]; [8]", "value": 15.5, "unit": "nM"},
      {"measurement": "Folds (fold changes according to WT virus)", "setting": "[5]", "value": 26, "unit": "fold"},
      {"measurement": "IC50", "setting": "[5]; [8]", "value": 19.5, "unit": "nM"},
      {"measurement": "Folds (fold changes according to WT virus)", "setting": "[6]", "value": 240, "unit": "fold"},
      {"measurement": "IC50", "setting": "[6]; [8]", "value": 177, "unit": "nM"}
    ]},
    {"smiles": "CC(=O)N[C@H]1[C@H]([C@H](O)[C@H](O)CO)OC(C(=O)O)=C[C@@H]1N=C(N)N", "note": "[Zanamivir, zanamivir]", "values": [
      {"measurement": "susceptibility phenotype", "setting": "[7]", "value": "susceptible"}
    ]}
  ]
}
